Experimental data taken from publication PMC8371902, “Phase 1 study of M2698, a p70S6K/AKT dual inhibitor, in patients with advanced cancer” (Journal of Hematology & Oncology, 2021).

Assay: Plasma pharmacokinetics of M2698, non-compartmental
Assay type: in vivo, human
Procedure: Plasma PK parameters on days 1 and 15 were calculated using non-compartmental methods.

[1] = day 1 single dose, monotherapy 15 mg, n=3
[2] = day 1 single dose, monotherapy 30 mg, n=3
[3] = day 1 single dose, monotherapy 60 mg, n=6
[4] = day 1 single dose, monotherapy 75 mg, n=4
[5] = day 1 single dose, monotherapy 110 mg, n=3
[6] = day 1 single dose, monotherapy 160 mg, n=5
[7] = day 1 single dose, monotherapy 200 mg, n=3
[8] = day 1 single dose, monotherapy 240 mg, n=9
[9] = day 1 single dose, monotherapy 320 mg, n=7
[10] = day 1 single dose, monotherapy 380 mg, n=4
[11] = day 15, combination with tamoxifen, M2698 80 mg, n=2
[12] = day 15, combination with tamoxifen, M2698 160 mg, n=5
[13] = day 15, combination with tamoxifen, M2698 200 mg, n=6
[14] = day 15, combination with tamoxifen, M2698 240 mg (intermittent regimen), n=4
[15] = day 15, combination with trastuzumab, M2698 80 mg, n=3
[16] = day 15, combination with trastuzumab, M2698 160 mg, n=7

## NC(=O)c1cccc2c(N[C@H](CN3CCC3)c3ccc(Cl)c(C(F)(F)F)c3)ncnc12 [M2698]
[1]
  AUC0–24, Geo mean (GeoCV%): 759 (67.2) ng∙h/mL
  Cmax, GeoMean (GeoCV%): 53.0 (91.1) ng/mL
  tmax, median (range): 3.08 (2.07–5.00) hours
[2]
  AUC0–24, Geo mean (GeoCV%): 1480 (52.9) ng∙h/mL
  Cmax, GeoMean (GeoCV%): 87.3 (55.9) ng/mL
  tmax, median (range): 4.00 (3.97–5.17) hours
[3]
  AUC0–24, Geo mean (GeoCV%): 2730 (36.3) ng∙h/mL
  Cmax, GeoMean (GeoCV%): 177 (38.3) ng/mL
  tmax, median (range): 4.08 (2.05–5.00) hours
[4]
  AUC0–24, Geo mean (GeoCV%): 4370 (85.2) ng∙h/mL
  Cmax, GeoMean (GeoCV%): 269 (114.4) ng/mL
  tmax, median (range): 4.83 (2.98–9.50) hours
[5]
  AUC0–24, Geo mean (GeoCV%): 4200 (21.0) ng∙h/mL
  Cmax, GeoMean (GeoCV%): 246 (21.7) ng/mL
  tmax, median (range): 6.08 (5.98–24.3) hours
[6]
  AUC0–24, Geo mean (GeoCV%): 8650 (49.8) ng∙h/mL
  Cmax, GeoMean (GeoCV%): 543 (65.3) ng/mL
  tmax, median (range): 4.05 (2.15–5.23) hours
[7]
  AUC0–24, Geo mean (GeoCV%): 8180 (102.8) ng∙h/mL
  Cmax, GeoMean (GeoCV%): 472 (110.1) ng/mL
  tmax, median (range): 4.60 (4.07–5.02) hours
Day 1 single dose, monotherapy 240 mg, n=8 for AUC
  AUC0–24, Geo mean (GeoCV%): 9200 (74.5) ng∙h/mL
[8]
  Cmax, GeoMean (GeoCV%): 590 (81.4) ng/mL
  tmax, median (range): 6.25 (4.00–24.3) hours
Day 1 single dose, monotherapy 320 mg, n=6 for AUC
  AUC0–24, Geo mean (GeoCV%): 15200 (104.0) ng∙h/mL
[9]
  Cmax, GeoMean (GeoCV%): 802 (112.0) ng/mL
  tmax, median (range): 4.73 (4.00–24.1) hours
Day 1 single dose, monotherapy 380 mg, n=2 for AUC
  AUC0–24, Geo mean (GeoCV%): 16500 (36.6) ng∙h/mL
[10]
  Cmax, GeoMean (GeoCV%): 1320 (55.0) ng/mL
  tmax, median (range): 6.28 (4.12–9.52) hours
[11]
  AUC0–τ, Geo mean (GeoCV%): 16,000 (44.7) ng∙h/mL
  Accumulation ratio (Cmax), Geo mean (GeoCV%): 2.31 (20.6)
  Cmax, GeoMean (GeoCV%): 819 (50.9) ng/mL
  tmax, median (range): 4.5 (4.00–5.00) hours
[12]
  AUC0–τ, Geo mean (GeoCV%): 22,000 (42.9) ng∙h/mL
  Accumulation ratio (Cmax), Geo mean (GeoCV%): 1.98 (26.6)
  Cmax, GeoMean (GeoCV%): 1270 (48.3) ng/mL
  tmax, median (range): 3.33 (2.95–5.58) hours
[13]
  AUC0–τ, Geo mean (GeoCV%): 27,000 (29.3) ng∙h/mL
  Accumulation ratio (Cmax), Geo mean (GeoCV%): 3.47 (65.7)
  Cmax, GeoMean (GeoCV%): 1380 (31.3) ng/mL
  tmax, median (range): 3.98 (3.07–10.0) hours
[14]
  AUC0–τ, Geo mean (GeoCV%): 20,600 (41.7) ng∙h/mL
  Accumulation ratio (Cmax), Geo mean (GeoCV%): 1.7 (40.9)
  Cmax, GeoMean (GeoCV%): 1110 (39.9) ng/mL
  tmax, median (range): 3.15 (2.13–4.00) hours
[15]
  AUC0–τ, Geo mean (GeoCV%): 7400 (34.3) ng∙h/mL
  Accumulation ratio (Cmax), Geo mean (GeoCV%): 2.00 (26.1)
  Cmax, GeoMean (GeoCV%): 405 (23.7) ng/mL
  tmax, median (range): 3.07 (2.03–5.58) hours
[16]
  AUC0–τ, Geo mean (GeoCV%): 47,200 (49.3) ng∙h/mL
  Accumulation ratio (Cmax), Geo mean (GeoCV%): 2.73 (31.5)
  Cmax, GeoMean (GeoCV%): 2560 (52.8) ng/mL
  tmax, median (range): 5.88 (3.05–8.08) hours
Day 15, monotherapy 15 mg, n=3
  AUC0–τ, Geo mean (GeoCV%): 2540 (6.0) ng∙h/mL
  Accumulation ratio (Cmax), Geo mean (GeoCV%): 2.57 (73.6)
  Cmax, GeoMean (GeoCV%): 136 (16.8) ng/mL
  tmax, median (range): 3.00 (2.97–7.50) hours
Day 15, monotherapy 30 mg, n=3
  AUC0–τ, Geo mean (GeoCV%): 5410 (17.8) ng∙h/mL
  Accumulation ratio (Cmax), Geo mean (GeoCV%): 3.19 (41.2)
